Results taken from patent US5196568A, “Compounds useful in enzymatic resolution systems and their preparation” (priority 1988, dated 1993).
Where a name gives a salt, the structure may show the parent alone. One block for each compound: values may come before it.

Tests used:
[1] = system: Protease XXIII from Aspergillus oryzae (Enzyme A); assay: Homogeneous aqueous enzymatic resolution (ester hydrolysis) with Enzyme A; assay type: biochemical
Description: No further purification was performed.

[2] = biological target: T1, Protease VIII "Subtilopeptidase A" (subtilisin Carlsberg) (Enzyme B) (Bacillus licheniformis, UniProt P00780); assay: Homogeneous aqueous enzymatic resolution with Enzyme B; assay type: biochemical
T1 sequence (P00780 106-379): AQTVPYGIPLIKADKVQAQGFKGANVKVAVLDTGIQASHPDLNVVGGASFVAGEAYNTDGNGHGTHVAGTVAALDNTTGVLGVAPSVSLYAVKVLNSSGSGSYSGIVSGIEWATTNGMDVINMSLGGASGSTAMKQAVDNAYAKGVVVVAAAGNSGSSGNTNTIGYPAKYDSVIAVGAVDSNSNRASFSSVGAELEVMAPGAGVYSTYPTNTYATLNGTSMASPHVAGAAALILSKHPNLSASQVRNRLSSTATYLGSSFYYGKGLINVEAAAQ

[3] = cited from earlier work
[4] = system: lipase from Candida cylindracea (Meito Sangyo, Lipase OF); assay: Activity of Lipase OF against the ester; assay type: biochemical
[5] = system: protease Prozyme 6 (Enzyme F); assay: Homogeneous aqueous enzymatic resolution with Enzyme F; assay type: biochemical, Aspergillus oryzae; conditions: for Conversion in Homogeneous Aqueous Reaction System: 0.5M ester, pH 7.0, 30 C
Description: The enzymatic reaction mixtures were capped and briefly shaken until all the substrate had dissolved, and the enzyme had completely dissolved or dispersed. […] Evaporation of the ether left a white solid. The result is summarized below in Table 11 Rotations were measured at c=1 in CHCl3.
The enzymatic reaction mixtures were capped and briefly shaken until all the substrate had dissolved, and the enzyme had completely dissolved or dispersed. […] Evaporation of the ether left a white solid. Rotations were measured at c=1 in CHCl3.
The reaction was started by adding 100 mg of the protease (F) from the fungus Aspergillus oryzae (from Amano Enzyme Corporation, Prozyme 6, 60,000 units per mg of solid).
After 20 hours at room temperature, the solution was acidified to pH 2 and extracted with 3 volumes of diethyl ether. The aqueous phase was saved for subsequent workup. The ether phase was washed with two volumes of distilled water and then one volume of saturated sodium chloride, and then it was dried over MgSO4 and subsequently evaporated to dryness. The resolved ibuprofen product recovered was 930 mg of white powder, indicating 45% conversion of racemic ester to acid. The optical rotation was -0.580° (measured at c=1 in ethanol), indicating the R isomer of ibuprofen.
35 mg of protease Enzyme F, as the commercial preparation Prozyme 6, were added to the aqueous solution. The reaction flask was capped, and briefly shaken until all the enzyme had dissolved or dispersed. […] The resulting mixture was diluted with one volume of water and was extracted with diethyl ether (2 times 200 ml). The ether layers were combined and backwashed with water (2 times 200 ml), saturated NaCl solution (200 ml), and then dried over MgSO4.
In this control run, a 0.5M ester solution of (1) was prepared in 325 ml of 0.1M sodium phosphate buffer (pH 7.0). The reaction was started by adding 3 gm of the above enzyme (F). The pH was controlled at 7.0 with 8.22M sodium hydroxide. After 6.49 hours at 30° C., 6.63 ml of hydroxide were added, indicating 37.7% conversion. The reaction was allowed to continue overnight and, after 23.1 hours, a total of 7.2 ml of sodium hydroxide were added, indicating 40.9% conversion.

[6] = system: protease Prozyme 6 (Enzyme F); assay: Asymmetric hydrolysis in an extractive membrane reactor with Enzyme F; assay type: biochemical, Aspergillus oryzae
Source text: Hexane was recirculated through the lumen or bores of the fibers in the module. The aqueous solution in the shell contained the enzyme and ester. While the cellulose membrane is water-wet, the membrane rejects the macromolecular enzyme (molecular weight 18,000). Therefore, the enzyme resides solely in the aqueous ester solution. As the ibuprofen acid was formed, it was extracted into the hexane phase, thereby reducing the effect of product (ibuprofen acid) inhibition on the activity of the enzyme.
The aqueous phase used to extract the ibuprofen acid from hexane in this module contained 0.1 M sodium carbonate buffer at pH 9.5. The pH was maintained at this value by the addition of 8.22M sodium hydroxide as required.
In this Example, the aqueous stream in the extractive membrane reactor module consisted of a solution of the sulfomethyl ester of ibuprofen (1), which solution was prepared by adding 32.51 gm of the sodium salt of the ester (at 75% chemical purity) to 1000 ml of 0.1M sodium phosphate buffer (pH 7.0). The reaction was started by adding 2 gm of the protease (F) from the fungus Aspergillus oryzae (from Amano Enzyme Corporation, Prozyme 6, 60,000 units per […] of solid). Reaction progress was followed by automatic titrimetry using a pH-stat.
The pH 9.5 solution was then acidified to pH 2 and extracted with 2 volumes of t-butyl methyl ether. The ether phase was first washed with two volumes of distilled water, then dried over MgSO4. and subsequently evaporated to dryness. The resolved ibuprofen product was recovered as about 6 gm of a white powder.
The optical rotation of the recovered product was measured by polarimetry; the experimentally determined value for [α]D was -56.7° (measured at c=0.815 in ethanol), thereby indicating the R isomer of ibuprofen. The sample was also analyzed by chiral HPLC using a Bakerbond DNBPG (covalent) column (4.6×250 mm), with 96.9% hexane:3.0% 2-propanol:0.1% acetonitrile as the mobile phase at 2 ml/min after derivatization with napthalene amine. The detector was a UV spectrophotometer set at 223 nm. The retention times for the S and R ibuprofen acids were 18.5 and 20.0 min, respectively. The optical purity or enantiomeric excess of this R ibuprofen sample as determined by this chiral HPLC procedure was 99.3% (i.e., enantiomeric excess of R ibuprofen).
The aqueous phase at pH 7.0 (as recovered from the extractive membrane reactor) was mixed with 280 gm of sodium chloride to salt out the remaining unconverted ester. The ester was filtered, washed with saturated sodium chloride, and air dried. 12.8 gm of ester were recovered in this manner. […] The optical rotation (as measured by polarimetry) was [α]D =+57.4° (c=1.29 in ethanol), indicating the S isomer of ibuprofen. […]

[7] = system: protease Prozyme 6 (Enzyme F); assay: Asymmetric hydrolysis in an extractive dispersion reactor with Enzyme F; assay type: biochemical, Aspergillus oryzae; conditions: 100 mg Prozyme 6, 3.38 gm ester in 100 ml buffer pH 7.0 and 100 ml hexane, 3.5 hours, room temperature
Description: In this Example, the hexane was dispersed in the reaction vessel to extract the inhibitory ibuprofen acid as it is formed. The reaction was started by adding 100 mg of the protease from the fungus Aspergillus oryzae (from Amano Enzyme Corporation, Prozyme 6, 60,000 units per mg of solid).
After 3.5 hours at room temperature with vigorous stirring, the solution was acidified to pH 2 and extracted with 2 volumes of hexane. The aqueous phase was saved for subsequent workup. The hexane phase was dried over MgSO4 and evaporated to dryness. The resolved ibuprofen product so recovered consisted of 490 mg of white powder, indicating 24% conversion. The optical rotation was -0.568° (c=1.015 in ethanol), indicating the R isomer of ibuprofen.

[8] = system: Protease XVI from Bacillus subtilis (Enzyme C); assay: Homogeneous aqueous enzymatic resolution with Enzyme C; assay type: biochemical; conditions: 100 mg enzyme C, 10 mmol ester in 100 ml 0.2M phosphate buffer pH 7.0, 20 hours, 20-22 C
[9] = biological target: T2, Protease XXVII "Nagarse" (Enzyme D) (Bacillus amyloliquefaciens, UniProt P00782); assay: Homogeneous aqueous enzymatic resolution with Enzyme D; assay type: biochemical; conditions: acid product (R); 150 mg enzyme D, pH 7.8
T2 construct: purchased Protease XXVII
T2 sequence (P00782 108-382): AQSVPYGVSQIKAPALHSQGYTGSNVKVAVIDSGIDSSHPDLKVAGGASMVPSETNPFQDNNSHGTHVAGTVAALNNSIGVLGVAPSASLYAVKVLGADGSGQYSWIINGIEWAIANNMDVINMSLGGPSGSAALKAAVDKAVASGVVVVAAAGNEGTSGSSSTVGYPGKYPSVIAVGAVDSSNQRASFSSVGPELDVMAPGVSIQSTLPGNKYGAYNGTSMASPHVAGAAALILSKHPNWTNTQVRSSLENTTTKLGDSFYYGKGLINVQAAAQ

Pig Liver Esterase (E) = assay: Homogeneous aqueous enzymatic resolution with Enzyme E; assay type: biochemical; conditions: 30 mg Pig Liver Esterase
[10] = Solubility of esters, absorbance of saturated solutions at 262 nm; assay type: physicochemical; conditions: saturated solution, pH 7 (50 mM phosphate buffer), room temperature

Compound: CC(C)NCC(O)COc1cccc2ccccc12 [L-form of propranolol, propranolol]
times more potent than the D-enantiomer ([3]; L-form vs D-enantiomer): 100 times

Compound: CC(C)Cc1ccc(C(C)C(=O)OCS(=O)(=O)O)cc1 (centres unmarked) [Compound 1, Sodium Salt of 4-Sulfomethyl Ester of 2-(4-Isobutylphenyl)propanoic Acid]
% e.e. ([1]; acid product (R), 100 mg enzyme A, pH 7.0, 20 hours, 20-22 C): > 99%
activity of the lipase against the ester [4]: inactive
conversion of racemic ester to acid ([5]; 100 mg Prozyme 6, 3.22 gm ester in 100 ml 0.2M sodium phosphate pH 7.0, 20 hours, room temperature): 45%
conversion ([5]; 3 gm enzyme F, 0.5M ester in 325 ml 0.1M sodium phosphate pH 7.0, 30 C, after 6.49 hours): 37.7%
Conversion in Homogeneous Aqueous Reaction System ([5]; 3 gm enzyme F, 23.1 hours): 40.9%
Conversion in Homogeneous Aqueous Reaction System ([5]; 3 gm enzyme F, Time 6.75 hrs): 37.7%
conversion of the racemic ester to the acid ([6]; enzyme in aqueous phase and membrane pores, 3 gm Prozyme 6, 0.5M ester, pH 7.0, 6.75 hours at 30 C): 48.3%
conversion of the racemic ester to ibuprofen acid ([6]; enzyme in aqueous phase only (cellulose dialysis fibers), 2 gm Prozyme 6, 32.51 gm ester in 1000 ml pH 7.0, hexane, 6.3 hours, room temperature): 50%
enantiomeric excess of R ibuprofen by chiral HPLC (acid product) ([6]; enzyme in aqueous phase only, 6.3 hours): 99.3%
enantiomeric excess of S ibuprofen by chiral HPLC (from unconverted ester) ([6]; enzyme in aqueous phase only, 6.3 hours, ester hydrolysed at pH 12): 98.9%
conversion [7]: 24%

Compound: CC(C)Cc1ccc(C(C)C(=O)OCCOP(=O)(O)O)cc1 (centres unmarked) [Compound 5, Disodium Salt of the Phosphoric Acid Ester of the 2-Hydroxyethyl Ester of 2-(4-Isobutylphenyl)propanoic Acid]
% CONVERSION [8]: 5.3%

Compound: CC(C)Cc1ccc(C(C)C(=O)OCCCCS(=O)(=O)O)cc1 (centres unmarked) [Compound 4, Potassium Salt of 4-Sulfobutyl Ester of 2-(4-Isobutylphenyl)propanoic Acid]
% CONVERSION [8]: 22.0%
Solubility [10]: 1130 mM

Compound: COc1ccc2cc([C@H](C)C(=O)O)ccc2c1 (stereo in doubt) [naproxen, (+)-S-2-(6-methoxy-2-naphthyl)propanoic acid]
times more therapeutically potent than its R(-) counterpart ([3]; S(+) enantiomer vs R(-)): 28 times

More lines, now with the values ahead:

% CONVERSION ([1]; 100 mg enzyme A, 10.0 mmol ester in 100 ml 2M Na3PO4 buffer pH 7.0, 25 C, 18 hours): 53%
% e.e. ([1]; acid product (S), 100 mg enzyme A, pH 7.0, 25 C, 18 hours): 3%
% e.e. ([2]; acid product (S), 100 mg enzyme B, pH 7.0, 25 C, 18 hours): 10%
Compound: CC(CSC(=O)c1ccccc1)C(=O)OCS(=O)(=O)O (racemic) [Compound 16, Potassium Salt of the Sulfomethyl Ester of (±)-S-3-Benzoylthio-2-methylpropanoic Acid]

% e.e. ([1]; acid product (R), 150 mg enzyme A, 125 ml buffer pH 7.0, 18 hours): > 99%
% e.e. ([2]; acid product (R), 150 mg enzyme B, 125 ml buffer pH 7.0, 18 hours): 90.0%
Compound: CC(C)Cc1ccc(C(C)C(=O)OCCS(=O)(=O)O)cc1 (centres unmarked) [Compound 2, Sodium Salt of 2-Sulfoethyl Ester of 2-(4-Isobutylphenyl)propanoic Acid]

% CONVERSION ([1]; 100 mg enzyme A, 10 mmol ester in 100 ml 0.2M phosphate buffer pH 7.0, 20 hours, 20-22 C): 50.0%
conversion of the racemic ester to acid ([1]; 1.00 gm enzyme A, about 1 M ester, 0.1M potassium phosphate pH 7.0, 23.9 hours, room temperature, by NaOH titration): 29%
% e.e. [9]: 91.0%
% CONVERSION (Pig Liver Esterase (E); 0.010 mol ester in 100 ml 0.2M sodium phosphate buffer at pH 7.8 (heading: pH 7.0)): 12.1%
% e.e. (Pig Liver Esterase (E); acid product (R), pH 7.8 (heading: pH 7.0)): 88.0%
Compound: CC(C)Cc1ccc(C(C)C(=O)OCCCS(=O)(=O)O)cc1 (centres unmarked) [Compound 3, Potassium Salt of 3-Sulfopropyl Ester of 2-(4-Isobutylphenyl)propanoic Acid]
